This is an account of results in US11655247B2, “Nanoluc suicide substrates” (PROMEGA CORPORATION, priority 2018, dated 2023).

This assay deals with NanoLuc-HaloTag. Nature of the assay: Direct and two-step labeling with azide-DBCO pair, fluorescence imaging on SDS/PAGE gel. Conditions: 50 uM compound 1 hour, then 100 uM DBCO-FAM 4 hours. The format is biochemical. As to the method:
In Example 26, a dye-appended suicide substrate is shown by fluorescence imaging to label NanoLuc. In this example, a suicide substrate with an appended azide is shown to label a NanoLuc-HaloTag protein in a two-step procedure in which the second step is copper-free click chemistry with a DBCO appended FAM dye. […] Structures of the compounds used in this example are illustrated in FIG. 10A.
0.5 uM NanoLuc-HaloTag in 100 mM Tris pH 8.0 was incubated for 1 hour with 50 uM of: Tube 1—JRW-1505; Tube 2—FAM-HaloTag ligand; Tube 3—JRW-0926; Tube 4—JRW-0975; Tube 5—JRW-1022; and Tube 6—SE-azide. In the second step, 100 uM DBCO-FAM was incubated for 4 hours in Tubes 1, 4, 5, and 6, followed by SDS/PAGE gel for all samples (FIG. 10B). The fluorescence (473ex) (Cy2 filter set) of bands corresponding to the size of NanoLuc-HaloTag was read and quantified.
In a second experiment, 1.5 uM NanoLuc-HaloTag in 100 mM Tris (or DPBS buffer) pH 8.0 was incubated with 50 uM of JRW-0975, FAM-HaloTag ligand, JRW-0926, JRW-1022, or SE-azide for 1 hour. In the second step, 100 uM DBCO-FAM was incubated for 4 hours with tubes 3, 4, and 5, followed by SDS/PAGE gel (FIG. 11A). The fluorescence (473ex) (Cy2 filter set) of bands corresponding to the size of NanoLuc-HaloTag was read and quantified (FIG. 11B).

As for `[N-]=[N+]=NCCOCCOCCC(=O)NCCOCCOCCCCCCCl` [JRW-1505, 3-(2-(2-azidoethoxy)ethoxy)-N-(2-(2-((6-chlorohexyl)oxy)ethoxy)ethyl)propanamide], the “Two-step labeling with DBCO-FAM” value was “two-step labeling occurs”.
